Read-outs that look alike come from different tables or passages of the source.
Columns and labels:
[1] = biological target: T1, human HPK1 (Homo sapiens, UniProt Q92918); test: Assay of in vitro HPK1 enzymatic activity (ADP-Glo); assay type: biochemical; settings: 7 nM kinase, 20 uM ATP
Method: Compounds were evaluated for their ability to inhibit human HPK1 by IC50 determination using the ADP-Glo method to measure the kinase activity.
Buffer conditions of the enzyme: 50 mM Hepes (pH 7.5), 10 mM MgCl2, 1 mM EGTA, 0.01% Brij35, 2 mM DTT.
Preparation of the Kinase and substrate mixture: the working concentration of the kinase in the HPK1 reaction solution was 7 nM and the working concentration of ATP was 20 uM.
The compound was diluted with DMSO in a dilution plate, with a maximum starting concentration of 1 uM and 10 concentration gradient points (4-fold dilution).
Each of the above 10 concentration gradient points of the compound was then diluted 50-fold into the kinase reaction buffer and shaken on a shaker for 20 min. The kinase was prepared in an enzyme reaction buffer and 2 μl of the HPK1 kinase was added per well of the reaction plate at a HPK1 kinase concentration of 7 nM.
1 μl of diluted compound in the buffer was added per well, and the plate was sealed with a plate sealing film, centrifuged at 1000 g for 30 seconds, and left at room temperature for 10 minutes. An ATP solution was prepared with an enzyme reaction buffer and 2 μl of the ATP solution was added to the reaction plate (the working concentration of ATP was 20 uM). The plate was sealed with a plate sealing film, centrifuged at 1000 g for 30 seconds, and reacted at room temperature for 60 minutes. 4 μL of ADP-Glu was transferred to a 384 reaction plate, centrifuged at 1000 rpm/min for 1 min, and incubated at 25° C. for 40 min. 8 μL of the Detection solution was transferred to a 384 reaction plate, centrifuged at 1000 rpm/min for 1 min, and incubated at 25° C. for 40 min. The RLU (Relative luminescence unit) signal was read using a BMG microplate reader, and the signal intensity was used to characterize the activity level of the kinase.
The kinase activity data was expressed by comparing the kinase activity of the test compound and the blank group (containing only DMSO), and the IC50 value was obtained by curve fitting using the Prism software (GraphPad7.0).

[2] = test system: IL2 activation in human PBMC; test: IL2 activity assay (ELISA) in human PBMC; assay type: cell-based; settings: CD3/CD28 antibody, 24 h
Method: The compound was diluted with DMSO in a dilution plate, with a maximum starting concentration of 10 μM, 8 concentration gradient points (3-fold dilution), and then added to the 96-well plate along with the addition of 5 µg/ml CD28 antibody. Incubation was performed for 24 h. • (3) The ELISA plate was washed twice with PBS, and an ELISA dilution was added at 100 µl/well. Then 100 μl of the standard and the incubated samples obtained in step 2 were added separately, and incubated for 2 h at room temperature. • (4) Each well was washed 3 times by adding with 400 μl washing buffer per well, and was finally blotted to dryness with a clean absorbent paper. • (5) 200 μl of the IL2 conjugate was added per well, covered with a fresh tape, and incubated for 2 h at room temperature. Step (4) was repeated. • (6) 200 μl of the substrate was added per well under the protection from light. The plate was incubated at room temperature for 20 min. • (7) 50 μL of a stop solution was added per well. The color of the wells should be from blue to yellow. Signals at […] were read by a microplate reader, and the signal intensity was used to characterize the activity level of IL2. EC50 values were obtained by fitting using the Prism software.

[3] = biological target: T1, human HPK1; test: HPK1 protein degradation assay (WB) in RAMOS cell line; assay type: cell-based; set-up: The RAMOS cell line was selected as the degradation cell line; endogenous in cells; host or cells: RAMOS; settings: RAMOS cells, 16 h, Western blot
Method: Degradation of HPK1 proteins and DC50/Dmax were determined by the WB method in order to evaluate the in vitro degradative ability of the compound.
The RAMOS cell line was selected as the degradation cell line. Incubation Conditions: RMPI 1640 culture medium supplemented with 10% FBS, 37° C., 5% CO2.
• (1) Plating cells: in a 6 cm dish with 4 ml of the culture medium, cells plated at 2×10^6 cells/dish. • (2) Drug addition: the compound (stock solution concentration: 10 mM) was diluted with DMSO in a dilution plate, with a maximum starting concentration of 10 μM and 7 concentration gradient points (3-fold dilution). 4 μl of each diluted solution was taken, added to a dish, and incubated for 16 h. • (3) Cells were harvested, added with a lysis buffer, and centrifuged at 12000 rpm/min for 20 min. The supernatant was collected. After quantification using a BCA quantification kit, 5× loading buffer was added to denature for 10 min. • (4) 10 μg of denatured protein was added to the SDS-PAGE gel. After electrophoresis and membrane transfer, the plate was blocked with 5% BSA for 1 h, incubate with the primary antibody at 4° C. overnight. After washing off the primary antibody, the secondary antibody was added, incubated at room temperature for 1 h, and washed off.
Imaging: the membranes were scanned with a two-color fluorescence imaging system.

[4] = Pharmacokinetics of single administration in mice; assay type: in vivo, Balb/c mice; set-up: Vz: unit not given here; settings: for clearance / half-life / AUC / bioavailability / Cmax: female, Balb/c, mouse, plasma; for AUC: read-out: AUC; for bioavailability: po 10 mg/kg vs iv 2 mg/kg; for Cmax: read-out: Cmax
Method: Female Balb/c mice (weighing 18-22 g) were fasted overnight prior to the experiment. The test compound was dissolved in the vehicle, DMSO:PEG400:30% captisol:HCl=5:20:70:5 (v/v/v/v), and administered by single oral gavage at a dose of 10 mg/kg or by intravenous injection at a dose of 2 mg/kg. Blood samples were collected from the orbital venous plexus at 15 minutes, 30 minutes, and 1, 2, 4, 6, 8, and 24 h after administration. Approximately 0.08 mL of blood was collected at each time point and placed in a 1.5 mL centrifuge tube containing EDTA-2K anticoagulant. Blood samples were centrifuged (3200 g, 10 min, 4° C.) within 2 h to obtain plasma samples. Plasma samples were frozen at −70° C. to −80° C. in an ultra-low temperature freezer prior to processing. Before sample processing, the plasma samples were taken out of the freezer. After thawing at room temperature, 20 μL of each plasma sample was added into a 96-well plate, and then 120 μL of acetonitrile containing an internal standard was added to precipitate proteins. […] The supernatant was taken and mixed with an equal volume of 0.1% aqueous formic acid solution for LC-MS/MS analysis.

T1 sequence (Q92918 whole entry): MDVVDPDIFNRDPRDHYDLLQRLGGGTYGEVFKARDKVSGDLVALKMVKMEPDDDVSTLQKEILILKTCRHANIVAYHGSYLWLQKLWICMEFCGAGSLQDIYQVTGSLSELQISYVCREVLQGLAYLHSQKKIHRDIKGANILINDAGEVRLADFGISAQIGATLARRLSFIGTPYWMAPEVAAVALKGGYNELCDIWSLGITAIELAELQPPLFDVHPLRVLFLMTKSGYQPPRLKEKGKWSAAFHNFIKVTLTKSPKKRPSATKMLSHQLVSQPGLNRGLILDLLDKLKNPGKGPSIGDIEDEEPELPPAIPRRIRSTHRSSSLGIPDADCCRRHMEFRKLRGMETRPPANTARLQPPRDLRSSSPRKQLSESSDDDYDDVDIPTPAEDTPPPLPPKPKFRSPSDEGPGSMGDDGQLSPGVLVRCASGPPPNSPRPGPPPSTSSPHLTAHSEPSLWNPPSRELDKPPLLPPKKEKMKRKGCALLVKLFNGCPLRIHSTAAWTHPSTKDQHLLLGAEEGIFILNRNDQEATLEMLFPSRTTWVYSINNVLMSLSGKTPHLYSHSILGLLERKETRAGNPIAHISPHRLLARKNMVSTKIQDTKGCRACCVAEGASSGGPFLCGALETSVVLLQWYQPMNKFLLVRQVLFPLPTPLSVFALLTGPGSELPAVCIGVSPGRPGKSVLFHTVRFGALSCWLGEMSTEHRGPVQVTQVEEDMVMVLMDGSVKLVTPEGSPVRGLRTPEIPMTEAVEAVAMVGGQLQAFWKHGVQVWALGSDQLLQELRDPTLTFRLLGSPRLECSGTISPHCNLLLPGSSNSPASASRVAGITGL

CCN1CCC(n2cc(-c3c[nH]c4ncc(-c5cnc(N6CCN(CC7CCN(C(=O)c8ccc(Cl)c(N9CCC(=O)NC9=O)c8)CC7)CC6)c(C)c5)nc34)cn2)CC1 [Compound C003]
IC50 [1]: 3.6 nM
EC50 [2]: 111 nM

CCN1CCC(n2cc(-c3c[nH]c4ncc(-c5cnc(OCC(=O)Nc6ccc(NC7CCC(=O)NC7=O)cc6)c(C)c5)nc34)cn2)CC1 (centres unmarked) [Compound C006]
IC50 [1]: 3.2 nM
EC50 [2]: 179 nM

CCN1CCC(n2cc(-c3c[nH]c4ncc(-c5cnc(N6CCN(C7CCC(NC(=O)c8cccc(N9CCC(=O)NC9=O)c8)CC7)CC6)c(C)c5)nc34)cn2)CC1 (centres unmarked) [Compound C017]
IC50 [1]: 0.9 nM
EC50 [2]: 324 nM

CCN1CCC(n2cc(-c3c[nH]c4ncc(-c5cnc(N6CCN(C7CCC(NC(=O)c8ccc(Cl)c(N9CCC(=O)NC9=O)c8)CC7)CC6)c(C)c5)nc34)cn2)CC1 (centres unmarked) [Compound C018]
IC50 [1]: 1.8 nM
EC50 [2]: 102 nM

CCN1CCC(n2cc(-c3c[nH]c4ncc(-c5ccc(N6CCN(C7CCC(NC(=O)c8ccc(Cl)c(N9CCC(=O)NC9=O)c8)CC7)CC6)c(C)c5)nc34)cn2)CC1 (centres unmarked) [Compound C021]
IC50 [1]: 0.5 nM
EC50 [2]: 37.9 nM

CCN1CCC(n2cc(-c3c[nH]c4ncc(-c5cnc(OCCNC(=O)c6ccc(Cl)c(N7CCC(=O)NC7=O)c6)c(C)c5)nc34)cn2)CC1 [Compound C022]
DC50 [3]: 55 nM
Dmax [3]: 86%
IC50 [1]: 1.4 nM
EC50 [2]: 95.6 nM

CCN1CCC(n2cc(-c3c[nH]c4ncc(-c5ccc(N6CCC(CC7CCN(C(=O)c8ccc(Cl)c(N9CCC(=O)NC9=O)c8)CC7)CC6)nc5)nc34)cn2)CC1 [Compound C024]
DC50 [3]: 2.1 nM
Dmax [3]: 77%
IC50 [1]: 2.3 nM
EC50 [2]: 196 nM

C/C(=C(Cl)\C=C/CC(=O)N1CCC(CC2CCN(c3ccc(-c4cnc5[nH]cc(-c6cnn(C)c6)c5n4)cn3)CC2)CC1)N1CCC(=O)NC1=O [Compound C110]
DC50 [3]: 9.35 nM
Dmax [3]: 93%
EC50 [2]: 55.6 nM
clearance ([4]; iv 2 mg/kg): 8.27 mL/min/kg
half-life ([4]; iv 2 mg/kg): 0.98 h
AUC ([4]; iv 2 mg/kg): 4030 ng·h/mL
half-life ([4]; po 10 mg/kg): 3.35 h
bioavailability [4]: 17.7%
AUC ([4]; po 10 mg/kg): 2210 ng·h/mL
Cmax ([4]; po 10 mg/kg): 840 ng/mL
Vz ([4]; iv 2 mg/kg): 701.3

[2H]C([2H])([2H])n1cc(-c2c[nH]c3ncc(-c4ccc(N5CCC(CC6CCN(C(=O)c7ccc(Cl)c(N8CCC(=O)NC8=O)c7)CC6)CC5)nc4)nc23)cn1 [Compound C160]
DC50 [3]: 12.7 nM
Dmax [3]: 88.8%
EC50 [2]: 45.5 nM
clearance ([4]; iv 2 mg/kg): 10.7 mL/min/kg
half-life ([4]; iv 2 mg/kg): 1.25 h
AUC ([4]; iv 2 mg/kg): 5330 ng·h/mL
half-life ([4]; po 10 mg/kg): 3.19 h
bioavailability [4]: 29.6%
AUC ([4]; po 10 mg/kg): 7960 ng·h/mL
Cmax ([4]; po 10 mg/kg): 2460 ng/mL
Vz ([4]; iv 2 mg/kg): 602

CCn1cc(-c2c[nH]c3ncc(-c4ccc(N5CCC(CC6CCN(C(=O)c7ccc(Cl)c(N8CCC(=O)NC8=O)c7)CC6)CC5)nc4)nc23)cn1 [Compound C162]
DC50 [3]: 29.2 nM
Dmax [3]: 86.5%
EC50 [2]: 27.3 nM
clearance ([4]; iv 2 mg/kg): 12.6 mL/min/kg
half-life ([4]; iv 2 mg/kg): 0.7 h
AUC ([4]; iv 2 mg/kg): 2640 ng·h/mL
half-life ([4]; po 10 mg/kg): 1.66 h
bioavailability [4]: 28%
AUC ([4]; po 10 mg/kg): 3690 ng·h/mL
Cmax ([4]; po 10 mg/kg): 1370 ng/mL
Vz ([4]; iv 2 mg/kg): 763

O=C1CCN(c2cc(C(=O)N3CCC(CC4CCN(c5ccc(-c6cnc7[nH]cc(-c8cnn(C9CC9)c8)c7n6)cn5)CC4)CC3)ccc2Cl)C(=O)N1 [Compound C170]
DC50 [3]: 52.2 nM
Dmax [3]: 87.1%
EC50 [2]: 23.8 nM
clearance ([4]; iv 2 mg/kg): 6.9 mL/min/kg
half-life ([4]; iv 2 mg/kg): 0.7 h
AUC ([4]; iv 2 mg/kg): 4830 ng·h/mL
half-life ([4]; po 10 mg/kg): 4.22 h
bioavailability [4]: 27.6%
AUC ([4]; po 10 mg/kg): 6670 ng·h/mL
Cmax ([4]; po 10 mg/kg): 1390 ng/mL
Vz ([4]; iv 2 mg/kg): 1329

Reference: US20260116884A1, “PROTAC CHIMERIC COMPOUND, PREPARATION METHOD THEREFOR AND USE THEREOF” (HANGZHOU ZHONGMEIHUADONG PHARMACEUTICAL CO., LTD., priority 2022, published 2026)
